From patent publication US8859571B2, “Quinazoline compounds” (GlaxoSmithKline LLC, priority 2009, dated 2014) come the findings set out here.

The assay has as its target T1, Full length human TNNI3K (hTNNI3K) (Homo sapiens, UniProt Q59H18).
T1 construct: His-MBP-TEV-Full length human TNNI3K (hTNNI3K); His (N); MBP (N); TEV cleavage site (N); made in house; host or cells: baculovirus system (printed 'Baculokinase system')
T1 sequence (Q59H18 1-835): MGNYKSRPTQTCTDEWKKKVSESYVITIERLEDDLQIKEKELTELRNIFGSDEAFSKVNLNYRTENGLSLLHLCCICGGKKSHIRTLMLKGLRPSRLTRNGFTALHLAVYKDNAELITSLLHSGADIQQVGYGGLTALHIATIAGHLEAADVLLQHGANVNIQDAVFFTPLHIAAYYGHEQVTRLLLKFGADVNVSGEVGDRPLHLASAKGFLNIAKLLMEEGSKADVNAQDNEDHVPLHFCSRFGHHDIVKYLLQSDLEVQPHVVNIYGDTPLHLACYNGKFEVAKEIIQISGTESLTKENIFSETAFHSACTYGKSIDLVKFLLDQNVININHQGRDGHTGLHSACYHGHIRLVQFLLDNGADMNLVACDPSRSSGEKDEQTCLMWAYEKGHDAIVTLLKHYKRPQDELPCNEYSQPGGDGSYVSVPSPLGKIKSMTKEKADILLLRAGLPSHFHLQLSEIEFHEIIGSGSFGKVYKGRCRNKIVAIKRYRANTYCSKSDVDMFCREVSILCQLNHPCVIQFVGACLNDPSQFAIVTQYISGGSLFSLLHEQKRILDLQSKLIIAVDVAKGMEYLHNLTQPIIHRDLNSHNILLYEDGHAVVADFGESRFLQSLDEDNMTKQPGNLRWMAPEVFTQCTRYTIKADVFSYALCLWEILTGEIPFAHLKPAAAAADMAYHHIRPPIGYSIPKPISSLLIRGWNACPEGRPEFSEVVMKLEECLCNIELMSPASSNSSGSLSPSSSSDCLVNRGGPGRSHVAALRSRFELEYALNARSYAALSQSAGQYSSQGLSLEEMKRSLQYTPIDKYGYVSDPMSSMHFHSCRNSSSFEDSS
The experiment in a line: Fluorescent polarization assay of compound inhibition on hTNNI3K ATP binding (Biological Assay Method I). Particulars: displacement of fluorescent ligand from hTNNI3K ATP binding pocket; mean of a minimum of 2 experiments; read-out: pXC50 (the source's name) (converted). From the text: Materials: His-MBP-TEV-Full length human TNNI3K (hTNNI3K) was expressed in Baculokinase system and purified from amylase affinity column followed by Superdex200. The fluorescent ligand 5-({[2-({[3-({4-[(5-hydroxy-2-methylphenyl)amino]-2-pyrimidinyl}amino)phenyl]carbonyl}amino)ethyl]amino}carbonyl)-2-(6-hydroxy-3-oxo-3H-xanthen-9-yl)benzoic acid was used. The preparation of this fluorescent ligand is disclosed in U.S. Provisional Patent Application No. 61/237,815 filed Aug. 28, 2009, the disclosure of which is incorporated by reference herein. The other buffer components, including MgCl2 (Catalog Number M1028), Bis-Tris (Catalog Number B7535), DTT (Catalog Number D9779) and Chaps (Catalog Number C3023) were purchased from Sigma-Aldrich.
Biological Assay Method I:
A fluorescent polarization assay was used to determine does response of compound inhibition on hTNNI3K ATP binding.
Solution 1: Ten (10) mL of a 5 nM 5-({[2-({[3-({4-[(5-hydroxy-2-methylphenyl)amino]-2-pyrimidinyl}amino)phenyl]carbonyl}amino)ethyl]amino}carbonyl)-2-(6-hydroxy-3-oxo-3H-xanthen-9-yl)benzoic acid solution (Solution 1) was prepared by mixing 5 μL of 1M DTT and 80 μL of 10% (w/v) Chaps and 5 μL of a 10 μM 5-({[2-({[3-({4-[(5-hydroxy-2-methylphenyl)amino]-2-pyrimidinyl}amino)phenyl]carbonyl}amino) ethyl]amino}carbonyl)-2-(6-hydroxy-3-oxo-3H-xanthen-9-yl)benzoic acid stock solution into 9910 μL buffer (20 mM Tris, 15 mM MgCl2, pH 7.5). (Stock solution: 10 μM solution of 5-({[2-({[3-({4-[(5-hydroxy-2-methylphenyl)amino]-2-pyrimidinyl}amino)phenyl]carbonyl}amino)ethyl]amino}carbonyl)-2-(6-hydroxy-3-oxo-3H-xanthen-9-yl)benzoic acid in 100% DMSO)
Solution 2 was formed by mixing 53.8 μL of 2.6 μM hTNNI3K with a 6946.2 μL aliquot of Solution 1 (the above 5-({[2-({[3-({4-[(5-hydroxy-2-methylphenyl)amino]-2-pyrimidinyl}amino)phenyl]carbonyl}amino)ethyl]amino}carbonyl)-2-(6-hydroxy-3-oxo-3H-xanthen-9-yl)benzoic acid solution) to make up a 7 mL of mixture of hTNNI3K and 5-({[2-({[3-({4-[(5-hydroxy-2-methylphenyl)amino]-2-pyrimidinyl}amino)phenyl]carbonyl}amino)ethyl]amino}carbonyl)-2-(6-hydroxy-3-oxo-3H-xanthen-9-yl)benzoic acid (Solution 2).
Fifty (50) nL of inhibitors in DMSO (or DMSO controls) were stamped into a 384-well low volume Greiner black plate, followed by addition of 5 μL of Solution 1 to column 18 and 5 μL Solution 2 to columns 1-17 and 19-24 of the plate. The plate was then spun at 500 rpm for 30 seconds and incubated at room temperature for 60 minutes. After that, the fluorescent polarization was measured on Analyst (ex/em: 485/530 nm, Dichroic: 505). For dose response experiments, normalized data were fit by ABASE/XC50 and pXC50=(log((b−y)/(y−a)))/d−log(x), where x is the compound concentration and y is the % activity at specified compound concentration, a is the minimum % activity, b is the maximum % activity, and d is the Hill slope.
The pXC50s are averaged to determine a mean value, for a minimum of 2 experiments.

Structures are written as SMILES. Values joined by “and” are separate entries in the source; they are usually repeats but may differ in a detail not shown here. Equal values may be shown once. Where a name gives a salt, the structure may show the parent alone.

Take `CNS(=O)(=O)c1ccc(OC(C)C(F)(F)F)c(Nc2ncnc3cc(OC)cc(OC)c23)c1` (single isomer, unassigned) [Example 82, 3-{[5,7-bis(methyloxy)-4-quinazolinyl]amino}-N-methyl-4-[(2,2,2-trifluoro-1-methylethyl)oxy]benzenesulfonamide hydrochloride]: the IC50 is 1 to 10 nM.
For `CNS(=O)(=O)c1ccc(N(C)C)c(Nc2ncnc3cc(OC)c(OC)cc23)c1` [Example 1, 3-{[6,7-bis(methyloxy)-4-quinazolinyl]amino}-4-(dimethylamino)-N-methylbenzenesulfonamide hydrochloride], the IC50 is 10 to 100 nM.
With `CNS(=O)(=O)c1ccc(N2CCOCC2)c(Nc2ncnc3cc(OC)c(OC)cc23)c1` [Example 3, 3-{[6,7-bis(methyloxy)-4-quinazolinyl]amino}-N-methyl-4-(4-morpholinyl)benzenesulfonamide trifluoroacetate], the IC50 was 10 to 100 nM and ~79.4 nM.
Turning to `CCN(C)c1ccc(S(=O)(=O)NC)cc1Nc1ncnc2cc(OC)c(OC)cc12` [Example 4, 3-{[6,7-bis(methyloxy)-4-quinazolinyl]amino}-4-[ethyl(methyl)amino]-N-methylbenzenesulfonamide], the IC50 is 10 to 100 nM.
The figure for `CNS(=O)(=O)c1ccc(OC(C)C)c(Nc2ncnc3cc(OC)c(OC)cc23)c1` [Example 5, 3-{[6,7-bis(methyloxy)-4-quinazolinyl]amino}-N-methyl-4-[(1-methylethyl)oxy]benzenesulfonamide] is 10 to 100 nM; for `CNS(=O)(=O)c1ccc(N(C)C)c(Nc2ncnc3ccc(OC)cc23)c1` [Example 10, 4-(dimethylamino)-N-methyl-3-{[6-(methyloxy)-4-quinazolinyl]amino}benzene sulfonamide trifluoroacetate] it is 10 to 100 nM.
As for `CNS(=O)(=O)c1ccc(OCC(F)(F)F)c(Nc2ncnc3cc(OC)c(OC)cc23)c1` [Example 11, 3-{[6,7-bis(methyloxy)-4-quinazolinyl]amino}-N-methyl-4-[(2,2,2-trifluoroethyl)oxy]benzenesulfonamide hydrochloride], the IC50 is 10 to 100 nM.
Consider `CNS(=O)(=O)c1ccc(N2CCC(F)(F)CC2)c(Nc2ncnc3cc(OC)c(OC)cc23)c1` [Example 14, 3-{[6,7-bis(methyloxy)-4-quinazolinyl]amino}-4-(4,4-difluoro-1-piperidinyl)-N-methylbenzenesulfonamide trifluoroacetate], for which the IC50 is 10 to 100 nM.
For `CNS(=O)(=O)c1ccc(N(C)C)c(Nc2ncnc3cc(OCCCCl)ccc23)c1` [Example 16, 3-({7-[(3-chloropropyl)oxy]-4-quinazolinyl}amino)-4-(dimethylamino)-N-methylbenzenesulfonamide], the IC50 was 10 to 100 nM.
With `CNS(=O)(=O)c1ccc(N(C)C)c(Nc2ncnc3cc(OCCOC)c(OCCOC)cc23)c1` [Example 17, 3-[(6,7-bis{[2-(methyloxy)ethyl]oxy}-4-quinazolinyl)amino]-4-(dimethylamino)-N-methylbenzenesulfonamide trifluoroacetate], the IC50 was 10 to 100 nM.
With `CNS(=O)(=O)c1ccc(OC)c(Nc2ncnc3cc(OCCOC)c(OCCOC)cc23)c1` [Example 18, 3-[(6,7-bis{[2-(methyloxy)ethyl]oxy}-4-quinazolinyl)amino]-N-methyl-4-(methyloxy) benzenesulfonamide hydrochloride], the IC50 is 10 to 100 nM.
`CNS(=O)(=O)c1ccc(OCC(F)(F)F)c(Nc2ncnc3cc(OCCOC)c(OCCOC)cc23)c1` [Example 19, 3-[(6,7-bis{[2-(methyloxy)ethyl]oxy}-4-quinazolinyl)amino]-N-methyl-4-[(2,2,2-trifluoroethyl)oxy] benzenesulfonamide]: the IC50 is 10 to 100 nM.
For the compound `CNS(=O)(=O)c1ccc(SC)c(Nc2ncnc3cc(OCCOC)c(OCCOC)cc23)c1` [Example 20, 3-[(6,7-bis{[2-(methyloxy)ethyl]oxy}-4-quinazolinyl)amino]-N-methyl-4-(methylthio) benzenesulfonamide], the IC50 was 10 to 100 nM.
With `CNS(=O)(=O)c1ccc(N2CCC[C@@H]2C(F)(F)F)c(Nc2ncnc3cc(OC)c(OC)cc23)c1` [Example 21, 3-{[6,7-bis(methyloxy)-4-quinazolinyl]amino}-N-methyl-4-[(2R)-2-(trifluoromethyl)-1-pyrrolidinyl] benzenesulfonamide trifluoroacetate], the IC50 is 1 to 10 nM.
As to `CNS(=O)(=O)c1ccc(N2CCC[C@@H]2C(F)(F)F)c(Nc2ncnc3ccc(Cl)cc23)c1` [Example 22, 3-[(6-chloro-4-quinazolinyl)amino]-N-methyl-4-[(2R)-2-(trifluoromethyl)-1-pyrrolidinyl] benzenesulfonamide trifluoroacetate], the IC50 is 10 to 100 nM.
In the case of `CNS(=O)(=O)c1ccc(N2CCCCC2)c(Nc2ncnc3cc(OC)c(OC)cc23)c1` [Example 25, 3-{[6,7-bis(methyloxy)-4-quinazolinyl]amino}-N-methyl-4-(1-piperidinyl) benzenesulfonamide trifluoroacetate], the IC50 is 1 to 10 nM.
Take `CNS(=O)(=O)c1ccc(N2CCCCC2)c(Nc2ncnc3ccc(Cl)cc23)c1` [Example 26, 3-[(6-chloro-4-quinazolinyl)amino]-N-methyl-4-(1-piperidinyl) benzenesulfonamide trifluoroacetate]: the IC50 was 10 to 100 nM.
The figure for `CNS(=O)(=O)c1ccc(N2C(C)CCC2C)c(Nc2ncnc3cc(OC)c(OC)cc23)c1` (stereo not drawn) [Example 27, 3-{[6,7-bis(methyloxy)-4-quinazolinyl]amino}-4-(2,5-dimethyl-1-pyrrolidinyl)-N-methylbenzenesulfonamide trifluoroacetate] is 1 to 10 nM.
With `CNS(=O)(=O)c1ccc(N2C(C)CCC2C)c(Nc2ncnc3ccc(Cl)cc23)c1` (stereo not drawn) [Example 28, 3-[(6-chloro-4-quinazolinyl)amino]-4-(2,5-dimethyl-1-pyrrolidinyl)-N-methylbenzenesulfonamide trifluoroacetate], the IC50 is 10 to 100 nM.
In the case of `CNS(=O)(=O)c1cccc(Nc2ncnc3cc(OC)cc(OC)c23)c1` [Example 30, 3-{[5,7-bis(methyloxy)-4-quinazolinyl]amino}-N-methylbenzenesulfonamide hydrochloride], the IC50 was 10 to 100 nM.
For `CNS(=O)(=O)c1ccc(OCC(F)(F)F)c(Nc2ncnc3cc(OC)cc(OC)c23)c1` [Example 31, 3-{[5,7-bis(methyloxy)-4-quinazolinyl]amino}-N-methyl-4-[(2,2,2-trifluoroethyl)oxy]benzenesulfonamide hydrochloride], the IC50 is 1 to 10 nM.
